Source: the kinase profiling compilation of Christmann-Franck et al. (2016)

Columns and labels:
Experiment in all cases: radiometric filter-binding kinase assay
[1] = molecular target: RPS6KA1 KD1 KD2 (human) (UniProt Q15418)
[2] = molecular target: MAP2K1 (human) (UniProt Q02750)
[3] = molecular target: TBK1 (human) (UniProt Q9UHD2)
[4] = molecular target: MARK3 (human) (UniProt P27448)
[5] = molecular target: CHEK2 (human) (UniProt O96017)
[6] = molecular target: STK3 (human) (UniProt Q13188)
[7] = molecular target: CaMK1 (human) (UniProt Q14012)
[8] = molecular target: MAPK3 (human) (UniProt P27361)
Sequence of MAPK3 (human) (P27361 whole entry, looked up): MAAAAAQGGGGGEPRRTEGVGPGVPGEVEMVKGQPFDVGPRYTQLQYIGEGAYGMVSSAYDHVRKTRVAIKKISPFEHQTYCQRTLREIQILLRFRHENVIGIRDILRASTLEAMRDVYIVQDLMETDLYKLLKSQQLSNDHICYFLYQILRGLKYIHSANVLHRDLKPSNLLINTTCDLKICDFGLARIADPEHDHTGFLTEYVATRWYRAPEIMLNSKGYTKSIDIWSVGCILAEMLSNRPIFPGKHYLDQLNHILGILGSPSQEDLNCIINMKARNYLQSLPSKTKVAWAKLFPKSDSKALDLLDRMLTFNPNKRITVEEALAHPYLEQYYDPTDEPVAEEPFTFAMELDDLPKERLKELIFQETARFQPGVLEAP

[9] = molecular target: MKNK2 (human) (UniProt Q9HBH9)
Sequence of MKNK2 (human) (Q9HBH9 whole entry, looked up): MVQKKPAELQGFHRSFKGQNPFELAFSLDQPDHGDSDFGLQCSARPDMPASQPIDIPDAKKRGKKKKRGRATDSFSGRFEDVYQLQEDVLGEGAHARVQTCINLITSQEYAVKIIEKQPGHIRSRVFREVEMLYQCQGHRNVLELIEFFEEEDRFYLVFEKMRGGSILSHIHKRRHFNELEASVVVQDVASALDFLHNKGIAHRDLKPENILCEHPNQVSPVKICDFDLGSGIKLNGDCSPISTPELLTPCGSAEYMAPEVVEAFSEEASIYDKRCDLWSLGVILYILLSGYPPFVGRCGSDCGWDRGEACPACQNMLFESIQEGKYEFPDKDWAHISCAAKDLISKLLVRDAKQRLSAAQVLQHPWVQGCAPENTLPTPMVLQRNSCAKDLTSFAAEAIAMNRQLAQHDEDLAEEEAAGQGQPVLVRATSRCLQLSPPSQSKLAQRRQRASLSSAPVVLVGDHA

[10] = molecular target: NEK2 (human) (UniProt P51955)
[11] = molecular target: MAPK14 (human) (UniProt Q16539)
[12] = molecular target: NEK6 (human) (UniProt Q9HC98)
Sequence of NEK6 (human) (Q9HC98 whole entry, looked up): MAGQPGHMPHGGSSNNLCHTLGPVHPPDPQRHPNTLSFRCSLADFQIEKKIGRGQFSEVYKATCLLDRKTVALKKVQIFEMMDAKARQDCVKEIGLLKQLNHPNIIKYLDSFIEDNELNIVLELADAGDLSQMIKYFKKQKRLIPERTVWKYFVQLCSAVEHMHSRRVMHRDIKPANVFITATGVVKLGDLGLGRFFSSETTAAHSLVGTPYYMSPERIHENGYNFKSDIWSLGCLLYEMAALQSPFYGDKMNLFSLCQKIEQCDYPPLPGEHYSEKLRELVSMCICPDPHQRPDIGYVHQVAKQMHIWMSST

[13] = molecular target: DYRK3 (human) (UniProt O43781)
[14] = molecular target: PAK4 (human) (UniProt O96013)
[15] = tested on: AKT1 (human), P31749 [S473D]
[16] = molecular target: MAPK8 (human) (UniProt P45983)
[17] = molecular target: EPHB2 (human) (UniProt P29323)
[18] = molecular target: MARK2 (human) (UniProt Q7KZI7)
[19] = molecular target: MARK1 (human) (UniProt Q9P0L2)
[20] = molecular target: CSNK1D (human) (UniProt P48730)
Sequence of CSNK1D (human) (P48730 whole entry, looked up): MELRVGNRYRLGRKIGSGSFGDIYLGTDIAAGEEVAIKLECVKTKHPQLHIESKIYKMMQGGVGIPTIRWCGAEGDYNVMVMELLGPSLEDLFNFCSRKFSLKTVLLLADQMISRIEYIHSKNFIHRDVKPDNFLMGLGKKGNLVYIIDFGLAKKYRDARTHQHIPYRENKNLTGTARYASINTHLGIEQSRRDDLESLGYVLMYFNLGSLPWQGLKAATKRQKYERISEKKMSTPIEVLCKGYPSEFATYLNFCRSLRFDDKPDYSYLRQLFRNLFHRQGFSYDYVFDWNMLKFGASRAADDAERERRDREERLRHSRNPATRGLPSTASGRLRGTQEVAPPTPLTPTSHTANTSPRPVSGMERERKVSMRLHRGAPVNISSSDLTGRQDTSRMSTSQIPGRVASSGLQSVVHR

[21] = molecular target: IRAK4 (human) (UniProt Q9NWZ3)
[22] = molecular target: NTRK1 (human) (UniProt P04629)
[23] = molecular target: MAP3K11 (human) (UniProt Q16584)
[24] = molecular target: IKBKE (human) (UniProt Q14164)
Sequence of IKBKE (human) (Q14164 whole entry, looked up): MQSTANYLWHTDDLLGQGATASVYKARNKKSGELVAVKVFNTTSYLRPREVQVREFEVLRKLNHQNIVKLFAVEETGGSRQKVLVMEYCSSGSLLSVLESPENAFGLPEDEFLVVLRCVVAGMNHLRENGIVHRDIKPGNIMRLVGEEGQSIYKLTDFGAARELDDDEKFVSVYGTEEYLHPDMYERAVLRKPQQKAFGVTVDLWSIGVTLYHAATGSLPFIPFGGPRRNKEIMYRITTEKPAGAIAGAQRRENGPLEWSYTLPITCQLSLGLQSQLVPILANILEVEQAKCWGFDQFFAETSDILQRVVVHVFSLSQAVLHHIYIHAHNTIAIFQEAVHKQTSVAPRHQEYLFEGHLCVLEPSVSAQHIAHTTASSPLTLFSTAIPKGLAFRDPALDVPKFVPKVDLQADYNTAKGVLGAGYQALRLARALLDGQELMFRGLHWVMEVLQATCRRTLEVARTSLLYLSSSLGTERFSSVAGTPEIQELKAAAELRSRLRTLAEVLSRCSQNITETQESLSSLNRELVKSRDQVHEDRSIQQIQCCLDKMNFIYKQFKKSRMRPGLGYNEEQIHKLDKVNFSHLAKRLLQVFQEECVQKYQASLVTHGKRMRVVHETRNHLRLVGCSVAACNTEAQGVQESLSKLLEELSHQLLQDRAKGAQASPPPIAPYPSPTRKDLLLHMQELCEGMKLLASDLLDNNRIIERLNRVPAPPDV

[25] = molecular target: TTK (human) (UniProt P33981)
[26] = molecular target: JAK2 JH1 JH2 (human) (UniProt O60674)
[27] = molecular target: MAPK9 (human) (UniProt P45984)
[28] = molecular target: MAPKAPK2 (human) (UniProt P49137)
Sequence of MAPKAPK2 (human) (P49137 whole entry, looked up): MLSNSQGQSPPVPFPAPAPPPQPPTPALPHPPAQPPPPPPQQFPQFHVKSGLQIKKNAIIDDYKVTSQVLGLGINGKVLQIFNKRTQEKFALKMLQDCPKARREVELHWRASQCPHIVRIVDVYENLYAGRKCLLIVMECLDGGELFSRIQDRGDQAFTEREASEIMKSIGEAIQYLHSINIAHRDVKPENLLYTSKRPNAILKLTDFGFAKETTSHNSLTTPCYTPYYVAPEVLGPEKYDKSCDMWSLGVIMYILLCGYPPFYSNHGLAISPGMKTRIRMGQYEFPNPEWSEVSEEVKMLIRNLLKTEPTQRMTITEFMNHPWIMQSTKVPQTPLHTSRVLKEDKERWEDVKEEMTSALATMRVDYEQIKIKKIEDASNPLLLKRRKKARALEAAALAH

[29] = molecular target: MKNK1 (human) (UniProt Q9BUB5)
[30] = molecular target: DYRK1A (human) (UniProt Q13627)
[31] = molecular target: PIM1 (human) (UniProt P11309)
Sequence of PIM1 (human) (P11309 whole entry, looked up): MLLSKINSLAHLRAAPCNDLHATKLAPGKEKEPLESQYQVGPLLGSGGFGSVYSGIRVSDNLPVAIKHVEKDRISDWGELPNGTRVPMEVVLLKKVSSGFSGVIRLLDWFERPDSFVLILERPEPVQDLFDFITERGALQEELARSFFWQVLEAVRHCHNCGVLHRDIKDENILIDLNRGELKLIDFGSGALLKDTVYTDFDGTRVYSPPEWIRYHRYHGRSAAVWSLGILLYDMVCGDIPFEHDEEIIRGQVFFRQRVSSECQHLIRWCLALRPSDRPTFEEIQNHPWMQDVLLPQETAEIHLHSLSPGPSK

[32] = molecular target: NUAK1 (human) (UniProt O60285)
[33] = molecular target: IKBKB (human) (UniProt O14920)
[34] = molecular target: STK11 CAB39 STRADA (human) (UniProt Q9Y376+Q7RTN6+Q15831)
[35] = tested on: RPS6KB1 (human), P23443 [T412E]
Sequence of RPS6KB1 (human), P23443 [T412E] (P23443 whole entry T412E, looked up): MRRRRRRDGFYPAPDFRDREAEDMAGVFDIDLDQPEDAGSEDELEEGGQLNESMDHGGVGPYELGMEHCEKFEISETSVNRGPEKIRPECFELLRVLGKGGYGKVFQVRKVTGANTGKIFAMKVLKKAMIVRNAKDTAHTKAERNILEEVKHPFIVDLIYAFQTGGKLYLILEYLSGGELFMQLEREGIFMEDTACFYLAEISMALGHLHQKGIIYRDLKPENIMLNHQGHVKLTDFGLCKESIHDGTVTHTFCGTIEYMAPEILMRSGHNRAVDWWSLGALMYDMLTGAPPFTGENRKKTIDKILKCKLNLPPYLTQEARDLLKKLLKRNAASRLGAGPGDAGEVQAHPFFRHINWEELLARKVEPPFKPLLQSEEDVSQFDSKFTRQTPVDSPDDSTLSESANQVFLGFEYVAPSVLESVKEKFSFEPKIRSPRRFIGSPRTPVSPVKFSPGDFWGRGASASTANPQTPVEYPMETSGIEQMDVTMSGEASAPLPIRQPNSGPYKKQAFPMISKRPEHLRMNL

Sequence of CHEK2 (human) (O96017 whole entry, looked up): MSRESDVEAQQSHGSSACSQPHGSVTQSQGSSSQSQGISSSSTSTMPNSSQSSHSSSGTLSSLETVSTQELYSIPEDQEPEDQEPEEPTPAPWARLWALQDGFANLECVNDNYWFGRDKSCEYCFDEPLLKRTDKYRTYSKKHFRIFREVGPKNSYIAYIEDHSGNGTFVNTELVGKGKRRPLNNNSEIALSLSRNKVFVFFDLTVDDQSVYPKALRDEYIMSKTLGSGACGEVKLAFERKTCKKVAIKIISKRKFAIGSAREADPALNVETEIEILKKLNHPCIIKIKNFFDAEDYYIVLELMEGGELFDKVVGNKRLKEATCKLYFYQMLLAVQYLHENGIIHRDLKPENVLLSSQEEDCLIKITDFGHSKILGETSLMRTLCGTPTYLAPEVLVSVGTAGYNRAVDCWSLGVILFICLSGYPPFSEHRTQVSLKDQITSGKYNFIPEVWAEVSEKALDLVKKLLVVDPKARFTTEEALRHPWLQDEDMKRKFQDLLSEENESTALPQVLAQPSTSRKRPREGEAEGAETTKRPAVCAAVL
Sequence of RPS6KA1 KD1 KD2 (human) (Q15418 whole entry, looked up): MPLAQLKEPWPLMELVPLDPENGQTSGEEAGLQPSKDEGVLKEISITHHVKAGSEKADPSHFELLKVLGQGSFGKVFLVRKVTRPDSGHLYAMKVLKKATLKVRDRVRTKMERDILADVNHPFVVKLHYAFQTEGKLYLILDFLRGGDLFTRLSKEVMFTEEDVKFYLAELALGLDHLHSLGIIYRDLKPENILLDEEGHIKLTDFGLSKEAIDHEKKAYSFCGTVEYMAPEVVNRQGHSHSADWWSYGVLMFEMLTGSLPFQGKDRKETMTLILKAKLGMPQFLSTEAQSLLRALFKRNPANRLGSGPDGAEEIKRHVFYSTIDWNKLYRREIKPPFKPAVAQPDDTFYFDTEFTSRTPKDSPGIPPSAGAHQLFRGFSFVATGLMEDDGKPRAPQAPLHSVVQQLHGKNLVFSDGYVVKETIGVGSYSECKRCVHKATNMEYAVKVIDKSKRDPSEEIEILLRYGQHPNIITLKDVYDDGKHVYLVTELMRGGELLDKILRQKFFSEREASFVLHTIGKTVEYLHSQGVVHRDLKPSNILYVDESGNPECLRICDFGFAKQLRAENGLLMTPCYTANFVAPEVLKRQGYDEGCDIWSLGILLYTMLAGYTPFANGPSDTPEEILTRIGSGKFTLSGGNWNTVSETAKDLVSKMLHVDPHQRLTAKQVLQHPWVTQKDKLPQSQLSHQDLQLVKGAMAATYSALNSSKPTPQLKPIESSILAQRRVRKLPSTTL

- residual activity ([1]; compound 0.1 µM): 88%
- residual activity ([1]; compound 1.0 µM): 66%
- residual activity ([1]; compound 10.0 µM): 34%
- residual activity ([2]; compound 0.1 µM): 91%
- residual activity ([2]; compound 1.0 µM): 95%
- residual activity ([2]; compound 10.0 µM): 87%
- residual activity ([3]; compound 0.1 µM): 97%
- residual activity ([3]; compound 1.0 µM): 91%
- residual activity ([3]; compound 10.0 µM): 56%
- residual activity ([4]; compound 0.1 µM): 100%
- residual activity ([4]; compound 1.0 µM): 108%
- residual activity ([4]; compound 10.0 µM): 99%
- residual activity ([5]; compound 0.1 µM): 85%
- residual activity ([5]; compound 1.0 µM): 93%
- residual activity ([5]; compound 10.0 µM): 54%
- residual activity ([6]; compound 0.1 µM): 85%
- residual activity ([6]; compound 1.0 µM): 96%
- residual activity ([6]; compound 10.0 µM): 92%
- residual activity ([7]; compound 0.1 µM): 109%
- residual activity ([7]; compound 1.0 µM): 83%
- residual activity ([7]; compound 10.0 µM): 22%
- residual activity ([8]; compound 0.1 µM): 88%
- residual activity ([8]; compound 1.0 µM): 105%
- residual activity ([8]; compound 10.0 µM): 117%
- residual activity ([9]; compound 0.1 µM): 90%
- residual activity ([9]; compound 1.0 µM): 92%
- residual activity ([9]; compound 10.0 µM): 96%
- residual activity ([10]; compound 0.1 µM): 91%
- residual activity ([10]; compound 1.0 µM): 95%
- residual activity ([10]; compound 10.0 µM): 87%
- residual activity ([11]; compound 0.1 µM): 87%
- residual activity ([11]; compound 1.0 µM): 91%
- residual activity ([11]; compound 10.0 µM): 99%
- residual activity ([12]; compound 0.1 µM): 84%
- residual activity ([12]; compound 1.0 µM): 108%
- residual activity ([12]; compound 10.0 µM): 83%
- residual activity ([13]; compound 0.1 µM): 82%
- residual activity ([13]; compound 1.0 µM): 91%
- residual activity ([13]; compound 10.0 µM): 64%
- residual activity ([14]; compound 0.1 µM): 83%
- residual activity ([14]; compound 1.0 µM): 110%
- residual activity ([14]; compound 10.0 µM): 96%
- residual activity ([15]; compound 0.1 µM): 86%
- residual activity ([15]; compound 1.0 µM): 91%
- residual activity ([15]; compound 10.0 µM): 88%
- residual activity ([16]; compound 0.1 µM): 116%
- residual activity ([16]; compound 1.0 µM): 103%
- residual activity ([16]; compound 10.0 µM): 86%
- residual activity ([17]; compound 1.0 µM): 82%
- residual activity ([17]; compound 10.0 µM): 84%
- residual activity ([18]; compound 1.0 µM): 106%
- residual activity ([18]; compound 10.0 µM): 83%
- residual activity ([19]; compound 1.0 µM): 85%
- residual activity ([19]; compound 10.0 µM): 74%
- residual activity ([20]; compound 0.1 µM): 99%
- residual activity ([20]; compound 1.0 µM): 106%
- residual activity ([20]; compound 10.0 µM): 91%
- residual activity ([21]; compound 1.0 µM): 63%
- residual activity ([21]; compound 10.0 µM): 24%
- residual activity ([22]; compound 1.0 µM): 47%
- residual activity ([22]; compound 10.0 µM): 30%
- residual activity ([23]; compound 1.0 µM): 88%
- residual activity ([23]; compound 10.0 µM): 56%
- residual activity ([24]; compound 0.1 µM): 90%
- residual activity ([24]; compound 1.0 µM): 102%
- residual activity ([24]; compound 10.0 µM): 83%
- residual activity ([25]; compound 1.0 µM): 85%
- residual activity ([25]; compound 10.0 µM): 68%
- residual activity ([26]; compound 1.0 µM): 90%
- residual activity ([26]; compound 10.0 µM): 86%
- residual activity ([27]; compound 0.1 µM): 101%
- residual activity ([27]; compound 1.0 µM): 93%
- residual activity ([27]; compound 10.0 µM): 87%
- residual activity ([28]; compound 0.1 µM): 90%
- residual activity ([28]; compound 1.0 µM): 92%
- residual activity ([28]; compound 10.0 µM): 59%
- residual activity ([29]; compound 0.1 µM): 92%
- residual activity ([29]; compound 1.0 µM): 100%
- residual activity ([29]; compound 10.0 µM): 97%
- residual activity ([30]; compound 0.1 µM): 101%
- residual activity ([30]; compound 1.0 µM): 94%
- residual activity ([30]; compound 10.0 µM): 58%
- residual activity ([31]; compound 0.1 µM): 40%
- residual activity ([31]; compound 1.0 µM): 18%
- residual activity ([31]; compound 10.0 µM): 10%
- residual activity ([32]; compound 1.0 µM): 106%
- residual activity ([32]; compound 10.0 µM): 78%
- residual activity ([33]; compound 0.1 µM): 84%
- residual activity ([33]; compound 1.0 µM): 93%
- residual activity ([33]; compound 10.0 µM): 84%
- residual activity ([34]; compound 1.0 µM): 93%
- residual activity ([34]; compound 10.0 µM): 97%
- residual activity ([35]; compound 0.1 µM): 86%
- residual activity ([35]; compound 1.0 µM): 111%
- residual activity ([35]; compound 10.0 µM): 61%
Structure (SMILES): O=C(Nc1ccccc1-c1cn2c(CN3CCNCC3)csc2n1)c1cnc2ccccc2n1
